Assay results reported in US20230257366A1, “SULFUR-CONTAINING ISOINDOLINE DERIVATIVE, AND PREPARATION METHOD THEREFOR AND MEDICAL USE THEREOF” (JIANGSU HENGRUI PHARMACEUTICALS CO., LTD., priority 2020, published 2023).

Legend:
NCI-H929 cells = test: NCI-H929 proliferation experiment (CellTiter-Glo, 5 days); type: cell-based; conditions: Homo sapiens, 120 h, 5 days incubation, read-out: IC50 values for the inhibition of proliferation of NCI-H929 cells
Procedure: The following method was used to determine the inhibitory activity of the compounds of the present disclosure on the proliferation of NCI-H929 cells. The experimental method was briefly described as follows.
NCI-H929 cells (ATCC, CRL-9068) were cultured in a complete medium (RPMI 1640 medium (Hyclone, SH30809.01) containing 10% fetal bovine serum (Corning, 35-076-CV) and 0.05 mM 2-mercaptoethanol (Sigma, M3148)). On the first day of the experiment, NCI-H929 cells were seeded in a 96-well plate at a density of 6000 cells/well with a complete medium to form 100 μL of cell suspension per well, and 10 μL of test compound prepared in a complete medium and diluted in a gradient was added to each well. The compound was firstly dissolved in DMSO, with an initial concentration of 10 mM, and then subjected to serial dilution at a 5-fold concentration gradient for a total of 9 concentration points, with a blank control of 100% DMSO. Another 5 μL of the compound dissolved in DMSO was added to 95 μL of complete medium, i.e., the compound was diluted 20-fold with the complete medium. Finally the compound diluted in the complete medium at 10 μL/well was added to the cell suspension, wherein the final concentrations of the compound were 9 concentration points obtained by 5-fold gradient dilution starting from 50 μM. A blank control containing 0.5% DMSO was set. The plate was incubated in a cell incubator at 37° C. with 5% CO2 for 5 days. On the sixth day, the 96-well cell culture plate was taken out, added with a CellTiter-Glo® luminescent cell activity detect reagent (Promega, G7573) at 50 μL/well, left to stand at room temperature for 10 min, and read for the luminescence signal values using a multi-mode microplate reader (PerkinElmer, EnVision 2015). IC50 values for the inhibitory activity of the compounds were calculated using Graphpad Prism software, with the results shown in Table 1.

NCI-H929 xenograft tumor = test: Pharmacodynamic test: NCI-H929 xenograft tumor in CB-17 SCID mice; type: in vivo
Procedure: This experiment was performed to evaluate the inhibition effect of the compound of Example 6 and the control example CC-92480 on the growth of human multiple myeloma cell NCI-H929 xenograft tumor in CB-17 SCID mice.
Compound of Example 6; control example CC-92480 (see compound 2 of WO2019014100A1, synthesized according to the method disclosed therein)
Solutions of the compound of Example 6 and the control example CC-92480 were prepared with 5% DMSO+20% PEG400+70% (10% TPGS)+5% (1% HPMC K100LV).
Thirty CB-17 SCID female mice, purchased from Beijing Vital River Laboratory Animal Technology Co., Ltd. (certificate No. 20170011006049, SCXK (Shanghai) 2017-0011), weighing about 19 g at the time of purchase, were bred at 5 mice/cage (in 12/12 hour light/dark cycle, at a constant temperature of 23±1° C. and humidity of 50%-60%) and had free access to food and water.
After adaptive feeding, the CB-17 SCID mice were grouped as follows:
NCI-H929 cells in a logarithmic growth phase were inoculated subcutaneously into the right flank of 30 female CB-17 SCID mice at 5×10^6 cells/mouse/100 μL (containing 50 μL of Matrigel). After 10 days, when the tumor volume of the tumor-bearing mice reached about 200 mm^3, the mice were randomly divided into 3 groups according to the tumor volume and body weight: vehicle control group, CC-92480-1 mpk, compound of Example 6-1 mpk, with 7 mice in each group. The day of grouping was set as Day 0 (D0), and intragastric administration was performed once a day for 11 days (Table 2). For the tumor-bearing mice, the tumor volume was measured with a vernier caliper and the body weight was measured with a balance twice a week, and the data were recorded.
All data were plotted and statistically analyzed using Excel and GraphPad Prism 5 software.
The tumor volume (V) was calculated as follows: V=½×a×b^2, where a and b represent length and width, respectively.
The relative tumor proliferation rate T/C (%)=(T−T0)/(C−C0)×100(%), where T and C are the tumor volume of animals at the end of the experiment in the treatment group and control group, respectively; T0 and C0 are the tumor volume of animals at the beginning of the experiment in the treatment group and control group, respectively.
Tumor growth inhibition TGI (%)=1−T/C (%), and when TGI (%) exceeds 100%, no specific value will be shown, and it is expressed only by >100%.
Tumor regression (%)=[(T0−T)/T0]×100(%).

[1] = Plasma stability in monkey plasma (LC-MS/MS); type: in vitro ADME; conditions: cryopreserved monkey plasma; monkey plasma, 37° C., 1 μM; read-out: T1/2 (min)/monkey
Procedure: The stability of the compound of Example 6 and the control example CC-92480 after incubation in cryopreserved monkey plasma at 37° C. for 0 min, 15 min, 30 min, 60 min, 120 min, 180 min and 240 min was determined quantitatively by LC-MS/MS.
Compound of Example 6 and control example CC-92480.
Monkey plasma was purchased from Shanghai Medicilon Inc.
A certain amount of the compound of Example 6 was weighed and prepared with DMSO to obtain a 30 mM stock solution. A certain volume of the stock solution was diluted into a solution I at a concentration of 1600 μM with DMSO; and a certain volume of the solution I at 1600 μM was diluted with 50% methanol to obtain a working solution II at a concentration of 16 μM. A 30 mM stock solution, a 1600 μM solution I′, and a 16 μM working solution II′ of CC-92480 were prepared as described above.
5 μL of the working solutions at 16 μM of the compound of Example 6 and the control example CC-92480 were each added to 75 μL of plasma to make the final concentration of the compounds of 1 μM. The samples were incubated under a 37° C. water bath for 0 min, 15 min, 30 min, 60 min, 90 min, 120 min, and 180 min. […] The supernatant was analyzed by LC-MS with a sample injection volume of 2 μL.

IC50 (NCI-H929 cells): 20 pM
Number of remaining animals/group (NCI-H929 xenograft tumor; 1 mg/kg qd/11d po): 7/7
half-life at 1 µM [1]: 806 min
Compound: N#Cc1ccc(N2CCC(Sc3ccc(COc4cccc5c4CN([C@H]4CCC(=O)NC4=O)C5=O)cn3)CC2)c(F)c1 [Compound 6, (S)-4-(4-((5-(((2-(2,6-dioxopiperidin-3-yl)-1-oxoisoindolin-4-yl)oxy)methyl)pyridin-2-yl)thio)piperidin-1-yl)-3-fluorobenzonitrile]
tumor inhibition rate (TGI) (NCI-H929 xenograft tumor; 1 mg/kg qd, 11 days after administration): > 100%
Mean tumor volume D0 (NCI-H929 xenograft tumor; 1 mg/kg qd, baseline at day of grouping (D0), n=7): 155.4 mm^3
% tumor regression D11 (NCI-H929 xenograft tumor; 1 mg/kg qd/11d po (i.g.), D11): 88%
Mean tumor volume D11 (NCI-H929 xenograft tumor; 1 mg/kg qd/11d po (i.g.), D11, n=7): 18.6 mm^3
